Results: patent publication EP0267740A1, “Naphthyridine and pyridopyrazine compounds and pharmaceutical usage thereof” (SCHERING CORPORATION, priority 1986, dated 1988)

Columns and labels:
[1] = test system: release of SRS-A from sensitized guinea pig lung fragments; experiment: Measurement of SRS-A release from sensitized guinea pig lung fragments after antigen (ovalbumin) challenge; assay type: cell-based; settings: Dose (Molar Conc.) 1 x 10^-5; lung fragments incubated with compound 12 min at 37°C, challenge with 20µg ovalbumin/ml
Experimental: The anti-allergy property of the compounds of this invention is evaluated by measuring the inhibition of the release of the mediator SRS-A (slow reacting substance of anaphylaxis) from sensitized guinea pig lung fragments after antigen challenge.
The release of SRS-A and histamine was studied in lungs from actively sensitized guinea pigs. Male Hartley guinea pigs (250-300 g, obtained from Charles River or Dutchland Farms) were sensitized with 5 mg ovalbumin injected intraperitoneally and 5 mg subcutaneously in 1 ml saline on day one, and 5 mg ovalbumin injected intraperitoneally on day four. The sensitized animals were used 3-4 weeks later.
Sensitized guinea pigs were killed by a blow to the head and the lungs removed and cleaned of visable connective tissue, trachea and large blood vessels. The lungs from individual animals were sliced into fragments approximately 1 mm in thickness using a McIlwain chopper and then washed with oxygenated Tyrode's buffer. Weighed aliquots (approximately 400 mg wet weight) of lung were transferred into vials containing 2 ml of fresh Tyrode's solution and incubated in the presence or absence of test compound for 12 min at 37°C followed by challenge of the tissue with 20µg ovalbumin/ml (final concentration). After an additional 15 min incubation, the vials were cooled to 4°C and 1.5 ml of clear supernatant media was removed and mixed with 6 ml of cold 100% ethanol. This mixture was thoroughly vortexed and kept at -15°C for 30 min to allow precipitation of protein. The samples were then centrifuged at 1000 x g for 15 min at 2°C and the clear supernatant fluid removed into polyethylene tubes and taken to dryness at 50°C under a stream of N₂ gas. The samples were stored at -70°C until assayed for SRS-A by bioassay or radioimmune assay.

[2] = Reversed Passive Arthus Reaction (RPAR) paw technique, anti-inflammatory test; assay type: in vivo, Male Lewis inbred albino rats; settings: Oral Dose 25 mg/kg by gavage in methyl cellulose, rat paw volume 2 hours post-challenge
Experimental: The compounds of this invention are also effective for the treatment of inflammation; thus they are useful for the treatment of arthritis, bursitis, tendonitis, gout and other inflammatory conditions. […] The potency of the compounds described and claimed herein for treatment of inflammatory conditions is determined using indomethacin as the standard.
Male Lewis inbred albino rats weighing 180-220 grams obtained from Charles River Breeding Laboratories are used in these experiments. The rats are housed 3 animals/cage and food and water are allowed ad libitum. The animals are numbered 1-3 in each cage and color marked for identification purposes.
All reagents and drugs are prepared just prior to the study. Crystallized and lyophilized bovine serum albumin (BSA), obtained from Sigma Chemical Company, is solubilized without shaking in cold sterile pyrogen free saline (10 mg/ml). […]
Groups of animals (6/group) are dosed with drug in MC by gavage one hour prior to sensitization with BSA. […] The volume of mercury displaced is converted to weight and recorded. […] Paw volumes are also recorded with a plethysmograph during the development of the inflammation at 2 and 4 hours post-challenge, and the results are shown in Table B below.

SMILES	% Inhibition (INHIBITION OF SRS-A RELEASE FROM GUINEA PIG LUNG) [1] [%]	% Inhibition 2 hrs. [2] [%]
CCCCc1c(O)c2cccnc2n(-c2cccnc2)c1=O	33	64
O=C1CCN(c2ccccc2)N1 [1-phenyl-3-pyrazolidinone, reference compound]	41	–
CCCCc1c(O)c2cccnc2n(-c2ccc3c(c2)CCC3)c1=O [3-(n-BUTYL)-4-HYDROXY-1-(5-INDANYL)-1,8-NAPHTHYRIDIN-2(1H)-ONE]	55	23
